{
  "source": "patent US10959433B2",
  "about": "“Use of cationic steroidal antimicrobials for sporicidal activity” (BRIGHAM YOUNG UNIVERSITY, priority 2017, dated 2021)",
  "key": {"[1]": {"tested_on": "vegetative form of B. subtilis", "assay": "Viability (CFU) assay, vegetative form", "format": "cell-based, Bacillus subtilis ATCC 6051", "conditions": "RT, incubation time 240 min", "method": "(§1) A viability assay of bacterial spores in the presence of a CSA compound was performed according to the protocol presented by Ghosh and Setlow. Ghosh, S. and P. Setlow, Isolation and characterization of superdormant spores of Bacillus species. J Bacteriol, 2009. 191(6): p. 1787-97. Spore suspensions in PBS were brought to […] and incubated with various concentrations of CSA-13. To evaluate the effect of treatment time on the killing properties of the antibiotic, incubation was performed for 15, 30, 60, 120 and 240 min, respectively. To investigate the effect of temperature on sporicidal properties, incubation at room temperature (RT) and at 70° C. was performed. After incubation, the plates were transferred to ice and suspensions were diluted 10- to 1000-fold in PBS. Then, 10 μL aliquots were spotted on LB agar plates for overnight culture at 37° C. and CFUs were determined. Cell survival, after exposure to the tested agent, was expressed as percent of control.\nFIG. 4 includes graphs showing decreased survival of CSA-13-treated B. subtilis spores. FIG. 4, panels A-C show decline in the survival of B. subtilis culture after incubation with various concentrations of CSA-13. FIG. 4, panels D-F show Level of metabolic activity observed in ceragenin (CSA)-treated spore samples exposed to appropriate environmental conditions when compared to untreated control. […]"}, "B. subtilis spores [2]": {"tested_on": "B. subtilis spores", "assay": "Viability (CFU) assay of bacterial spores", "format": "cell-based, Bacillus subtilis ATCC 6051", "method": "(§2) This example studied the ability of a CSA compound (e.g., CSA-13) to kill sporulated bacterial, namely Bacillus subtilis ATCC 6051 spores. To prepare Bacillus subtilis ATCC 6051 spores, bacteria were grown on LB (Luria-Bertani) agar plates without antibiotics at 37° C. for 72 h. Bacteria were harvested, re-suspended in ice-cold phosphate buffered saline (PBS) solution and purified by triple centrifugation (12 000×g, 10 min, 4° C.). The spore suspension was heat treated (75° C., 15 min) to remove remaining vegetative cells, cooled, stored in water at 4° C. and protected from light until analysis. […] Zhang, P., P. Setlow, and Y. Li, Characterization of single heat-activated Bacillus spores using laser tweezers Raman spectroscopy. Opt Express, 2009. 17(19): p. 16480-91. All spores used in this work were free of vegetative cells (>98%), as determined by staining cells using Schaeffer and Fulton Spore Stain Kit (Sigma-Aldrich, St Louis, Mo., USA). Additionally, to confirm the formation of spores during preparation, purified samples were investigated using transmission electron microscopy (TEM, Tecnai G2 X-TWIN, FEI, USA).\nas §1\nFIG. 4 includes graphs showing decreased survival of CSA-13-treated B. subtilis spores. FIG. 4, panels A-C show decline in the survival of B. subtilis culture after incubation with various concentrations of CSA-13. FIG. 4, panels D-F show Level of metabolic activity observed in ceragenin (CSA)-treated spore samples exposed to appropriate environmental conditions when compared to untreated control. Samples were incubated at RT (panels A, D for vegetative form and panels B, E for spore form, respectively) and at 70° C. (panels C, F) for 15 (white squares), 30 (grey circles), 60 (black circles), 120 (white triangles) and 240 (grey diamonds) minutes. […]"}, "[3]": {"tested_on": "vegetative cells of B. subtilis", "assay": "MTT assay of metabolic activity, vegetative cells", "format": "cell-based, Bacillus subtilis", "conditions": "RT (FIG. 4, panel D)", "method": "(§3) As an additional confirmation of results, the presence of a metabolically active fraction of cells was investigated using MTT assay. After incubation of spores with various concentrations of CSA-13 in a non-growing medium (PBS), 20 μL of MTT solution (thiazolyl blue tetrazolium bromide, Sigma-Aldrich, St Louis, Mo., USA, 5 mg/mL) and 100 μL of LB medium broth were added. Incubation at 37° C. was continued for 8 h. Medium was removed, and 100 μL of dimethyl sulfoxide solution (DMSO) was added to dissolve the MTT precipitate. Cells were allowed to stand at room temperature (RT) for 10 min with shaking. Absorbance values were detected at a wavelength of 570 nm using a microplate spectrophotometer. Absorbance values obtained in control spores cultures (without a tested agent) were taken as 100%. As positive controls, 1 M HCl (for spore treatment at RT) and 70% ethanol (for spore treatment at 70° C.) were employed. The average of all the experiments was presented in comparison to the level of metabolic activity detected in non-treated B. subtilis suspension. Incubation of both vegetative cells and spores of B. subtilis was performed for 15, 30, 60, 120 and 240 min."}, "B. subtilis spores [4]": {"tested_on": "B. subtilis spores", "assay": "MTT assay of metabolic activity, spores", "format": "cell-based, Bacillus subtilis", "conditions": "LB broth 37° C. 8 h after treatment at RT or 70° C. (FIG. 4, panels E, F)", "method": "as §3, with “Incubation of both vegetative cells and spores of B. subtilis was performed for 15, 30, 60, 120 and 240 min.” left out\nThe results of viability testing largely correlate with data obtained in the MTT assay. […] The incubation of non-treated spores in LB broth at 37° C. results in reactivation of metabolic activity confirmed by increasing formazan reduction and subsequent rise in an absorbance value. […]"}, "B. subtilis spores [5]": {"tested_on": "B. subtilis spores", "assay": "Spore germination by optical density (OD600)", "format": "cell-based, Bacillus subtilis", "conditions": "10 to 100 μg/mL, 1 h at RT in PBS, then LB broth, OD600 for 60 min (FIG. 5, panel A)", "method": "To further assess germination processes in antibiotic-treated samples, a spectrophotometric method was employed. Isolated spores were incubated at RT for 1 h in PBS with concentrations of CSA-13 ranging from 10 to 100 μg/mL. Then 100 μL of LB broth was added, and optical densities at 600 nm (OD600) were monitored, using a microplate reader (Synergy H1, BioTek, VT, USA), for 60 min. FIG. 5 includes graphs showing inhibitory effect of CSA-13 on B. subtilis spore germination assessed by the measurement of optical density for spore suspension with increasing concentrations of the antibiotic (10 μg/mL—white squares; 20 μg/mL—white diamonds; 50 μg/mL—black triangles; 100 μg/mL—black diamonds), when compared with control (CT—grey circles) (panel A). Release of rhodamine 6G from external layers of B. subtilis spores after treatment with 20 μg/ml of CSA-13 (black square) and vancomycin (VAN; grey square) (panel B)."}, "[6]": {"tested_on": "external layers of B. subtilis spores", "assay": "Release of rhodamine 6G from the surface of spores", "format": "cell-based, Bacillus subtilis", "method": "The release of rhodamine 6G absorbed on the surface of Bacillus spores was evaluated using the Maesaki method (Maesaki, S., et al., Rhodamine 6G efflux for the detection of CDR1-overexpressing azole-resistant Candida albicans strains. J Antimicrob Chemother, 1999. 44(1): p. 27-31) with minor modifications. To stain cells with rhodamine 6G, the dye was added to a final concentration of 10 μM for 10 min. Non-absorbed dye was removed by centrifugation for 2 min at 10 000×g. Next, stained cells were washed and CSA-13 at 20 μg/mL was added. After incubation for 10, 30, 60 and 120 min, supernatant was collected by centrifugation and absorption at 527 nm was measured. The total concentration of rhodamine 6G released from the surface of spores was calculated using a standard concentration curve. The level of antibiotic-induced release was presented as the difference between the concentration of rhodamine 6G released from treated spores and control samples."}, "[7]": {"tested_on": "membrane of vegetative and spore form of B. subtilis", "assay": "Affinity of FITC-labeled CSA-13 to cell membranes (fluorimetric)", "format": "binding, Bacillus subtilis", "conditions": "FITC-labeled CSA-13, 20 μg/mL", "method": "To assess the affinity/binding of CSA-13 for the outer bacterial membrane, CSA-13 was labeled with fluorescein isothiocyanate (FITC) and added to the suspensions of vegetative cell and spores, to a final concentration of 20 μg/mL. […] To evaluate whether affinity of CSA-13 is influenced by the surface electrical properties of cells, zeta potentials of vegetative bacteria and spore suspensions were assessed using Zetasizer Nano ZS (Malvern Instruments, United Kingdom). Bacterial and spore cultures were brought to OD600˜0.1 in PBS buffer (pH=7). To evaluate the effect of the ceragenin on zeta potential value, CSA-13 was added at the concentration of 100 μg/mL to the spore suspension, incubated for 15 minutes and transferred to a cuvette. Measurements were conducted at 25° C."}, "B. subtilis spores [8]": {"tested_on": "B. subtilis spores", "assay": "TEM of treated spores (morphology, membrane permeability)", "format": "cell-based, Bacillus subtilis", "conditions": "50 μg/mL and 200 μg/mL, 1 hour, RT and 70° C. (FIG. 3, panels C-F)", "method": "as §2\nTo visualize alterations in morphology and membrane permeability of treated spores, a suspension of spores (OD600˜0.5) in distilled water was treated with CSA-13 at concentrations of 50 μg/mL and 200 μg/mL and incubated for 1 hour at RT and 70° C. […]"}, "B. subtilis spores [9]": {"tested_on": "B. subtilis spores", "assay": "Confocal Raman spectroscopy of single spores (CaDPA content)", "format": "cell-based, Bacillus subtilis", "conditions": "50 μg/mL and 200 μg/mL", "method": "For Raman spectroscopy analyses, spores of B. subtilis were suspended in 100 μL of distilled water and treated with CSA-13 (50 μg/mL and 200 μg/mL) for 1 hour at RT and 70° C. Samples were transferred to polished calcium fluoride (CaF2) optical windows (Crystran, United Kingdom) and dried at 60° C. Raman spectra were recorded using a Renishaw InVia Raman spectrometer equipped with an optical confocal microscope, an air-cooled laser emitting at 532 nm, and an CCD detector thermoelectrically cooled to −70° C. A dry Leica N PLAN EPI (100×, NA 0.85) objective was used. The power of the laser at the sample position was ca. 1.5 mW. A sum of 20 scans with integration time of 20 seconds and a resolution of 0.5 cm^−1 was collected. The spectrometer was calibrated using the Raman scattering line generated by an internal silicon plate. A laser spot (diameter of ca. 760 nm) was focused on a single spore and then the measurement was performed. All spectra were smoothed and baseline corrected. Results from one representative experiment are provided.\nFIGS. 7 and 8 show Raman spectra collected from B. subtilis spores incubated at RT and at 70° C., respectively, with corresponding confocal microscopy images. Panels A1 and A2—control sample, panels B1 and B2—50 μg/mL of CSA-13, panels C1 and C2—200 μg/mL of CSA-13. Asterisks denote CaDPA bands well separated from bands of spore biocomponents. […]"}},
  "data": [
    {"smiles": "CCCCCCCCNCCC[C@@H](C)[C@H]1CC[C@H]2[C@@H]3[C@H](OCCCN)C[C@@H]4C[C@H](OCCCN)CC[C@]4(C)[C@H]3C[C@H](OCCCN)[C@]12C", "note": "[CSA-13]", "values": [
      {"measurement": "concentration at which all vegetative cells were killed", "setting": "[1]", "result": 15, "unit": "µg/mL"},
      {"measurement": "effect of elevated temperature on sporicidal activity", "setting": "B. subtilis spores [2]; 70° C. versus room temperature", "result": "elevated temperature significantly intensifies the activity"},
      {"measurement": "concentration killing bacterial spores", "setting": "B. subtilis spores [2]; 70° C., incubation 120 and 240 minutes", "result": 5, "unit": "µg/mL"},
      {"measurement": "concentration sufficient to inhibit the growth of spores", "setting": "B. subtilis spores [2]; 70° C., incubation 15 min (FIG. 4, panel C)", "result": 20, "unit": "µg/mL"},
      {"measurement": "concentration giving total inhibition of spore growth potential", "setting": "B. subtilis spores [2]; RT, regardless of incubation time (15-240 min) (FIG. 4, panel B)", "result": 100, "unit": "µg/mL"},
      {"measurement": "concentration at which vegetative cells showed no detectable metabolism", "setting": "[3]", "result": 20, "unit": "µg/mL"},
      {"measurement": "metabolic activity of treated spores after exposure to favorable conditions", "setting": "B. subtilis spores [4]", "result": "only a small fraction of spores was able to resume proper metabolic activity"},
      {"measurement": "effect on spore germination (OD600)", "setting": "B. subtilis spores [5]", "result": "strong interference in the germination"},
      {"measurement": "rhodamine 6G release compared with vancomycin", "setting": "[6]; 20 μg/mL of each", "result": "significantly higher than that of vancomycin"},
      {"measurement": "release of rhodamine 6G from spores", "setting": "[6]; 20 μg/mL, 10-120 min (FIG. 5, panel B)", "result": "resulted in the release of dye"},
      {"measurement": "affinity for the external layers of spores", "setting": "[7]", "result": "high affinity"},
      {"measurement": "affinity for spores versus vegetative form", "setting": "[7]; recorded 15 min (FIG. 6, panel A)", "result": "greater affinity for the spores than for the vegetative form of bacteria"},
      {"measurement": "change of spore structure in TEM micrographs", "setting": "B. subtilis spores [8]", "result": "disruption of spore membrane architecture"},
      {"measurement": "percentage of CaDPA negative spores, 70° C. versus room temperature", "setting": "B. subtilis spores [9]; 1 hour (FIG. 8)", "result": "greater compared to sample treated at room temperature"},
      {"measurement": "number of CaDPA positive spores after treatment", "setting": "B. subtilis spores [9]; 1 hour, versus untreated", "result": "significant reduction of the number of CaDPA positive cells"}
    ]}
  ]
}
